The values that follow come from ChEMBL document CHEMBL1147611, “Anti-AIDS agents. Part 57: Actein, an anti-HIV principle from the rhizome of Cimicifuga racemosa (black cohosh), and the anti-HIV activity of related saponins” (Bioorg Med Chem Lett, 2004).

Values after ≈ are worked out from the molar mass of the structure shown. A value given as a limit tells only on which side of the number the result lay.

One data set has as its system H9. The data set can be described thus: Effective concentration required to suppress HIV replication in H9 lymphocytes was determined; Moderate activity. It is filed as functional, cell-based, Homo sapiens.
Conditions: not given
Regarding `C=CC(C)(O)CC/C=C(\CO)C(=O)O[C@H]1[C@H](O[C@@H]2[C@H](OC(=O)[C@]34CCC(C)(C)C[C@H]3C3=CC[C@@H]5[C@@]6(C)CC[C@H](O[C@H]7O[C@@H](CO[C@@H]8OC[C@H](O)[C@@H](O)[C@@H]8O[C@@H]8OC[C@@H](O)[C@H](O)[C@@H]8O)[C@@H](O)[C@H](O)[C@@H]7O)C(C)(C)[C@@H]6CC[C@@]5(C)[C@]3(C)CC4)O[C@@H](COC(=O)/C(=C/CC[C@](C)(C=C)O[C@@H]3OC[C@@H](O)[C@H](O)[C@@H]3OC(=O)/C(=C/CC[C@@](C)(O)C=C)CO)CO)[C@@H](O)[C@@H]2O)O[C@@H](C)[C@H](O[C@@H]2OC[C@@H](O)[C@H](O[C@@H]3OC[C@@H](O)[C@H](O)[C@@H]3O)[C@@H]2O)[C@@H]1O` (some centres undefined), the half-maximal effective concentration (EC50) (in general, the concentration needed to bring the measured effect to its halfway point) is reported as “Moderate”.
On the same count and under the same terms, with `C=CC(C)(O)CC/C=C(\CO)C(=O)O[C@H]1[C@@H](OC[C@@H]2O[C@@H](OC(=O)[C@]34CCC(C)(C)C[C@H]3C3=CC[C@@H]5[C@@]6(C)CC[C@H](O[C@@H]7O[C@@H](CO[C@@H]8OC[C@H](O)[C@H](O)[C@@H]8O[C@@H]8OC[C@@H](O)[C@H](O)[C@@H]8O)[C@@H](O)[C@H](O)[C@@H]7O)C(C)(C)[C@@H]6CC[C@@]5(C)[C@]3(C)C[C@H]4O)C(O[C@@H]3O[C@@H](C)[C@H](O[C@@H]4OC[C@@H](O)[C@H](O[C@@H]5OC[C@@H](O)[C@H](O)C5O)[C@@H]4O)[C@H](O)[C@H]3O)[C@@H](O)[C@@H]2O)O[C@@H](C)[C@H](O)[C@@H]1OC(=O)/C(=C/CCC(C)(O)C=C)CO` (some centres undefined) the entry was “Moderate”; with `C=CC(C)(O)CC/C=C(\CO)C(=O)OC[C@@H]1O[C@@H](OC(=O)[C@]23CCC(C)(C)C[C@H]2C2=CC[C@@H]4[C@@]5(C)CC[C@H](O[C@@H]6O[C@@H](CO[C@@H]7OC[C@H](O)[C@H](O)[C@@H]7O[C@@H]7OC[C@@H](O)[C@H](O)[C@@H]7O)[C@@H](O)[C@H](O)[C@@H]6O)C(C)(C)[C@@H]5CC[C@@]4(C)[C@]2(C)CC3)C(O[C@@H]2O[C@@H](C)[C@H](O[C@@H]3OC[C@@H](O)[C@H](O[C@@H]4OC[C@@H](O)[C@H](O)C4O)[C@@H]3O)[C@H](O)[C@H]2O)[C@@H](O)[C@@H]1O` (some centres undefined), “Moderate”; with `C=CC(C)(O)CC/C=C(\CO)C(=O)OC[C@@H]1O[C@@H](OC(=O)[C@]23CCC(C)(C)C[C@H]2C2=CC[C@@H]4[C@@]5(C)CC[C@H](O[C@@H]6O[C@@H](CO[C@@H]7OC[C@H](O)[C@H](O)[C@@H]7O[C@@H]7OC[C@@H](O)[C@H](O)[C@@H]7O)[C@@H](O)[C@H](O)[C@@H]6O)C(C)(C)[C@@H]5CC[C@@]4(C)[C@]2(C)C[C@H]3O)C(O[C@@H]2O[C@@H](C)[C@H](O[C@@H]3OC[C@@H](O)[C@H](O[C@@H]4OC[C@@H](O)[C@H](O)C4O)[C@@H]3O)[C@H](O)[C@H]2O)[C@@H](O)[C@@H]1O` (some centres undefined), “Moderate”.

The subject of the next data set is H9. The data set can be described thus: Effective concentration required to suppress HIV replication in H9 lymphocytes was determined. It counts as functional, cell-based. As to conditions: Homo sapiens.
Consider `CC(=O)O[C@@H]1C[C@@]23C[C@@]24CC[C@H](OC2OCC(O)C(O)C2O)C(C)(C)[C@@H]4CC[C@H]3[C@]2(C)C[C@@H]3O[C@]4(C[C@@H](C)[C@@H]3[C@@]12C)O[C@H](O)[C@@]1(C)O[C@@H]41` (some centres undefined), for which a half-maximal response (EC50) required 0.375 µg/mL (≈ 0.554 µM).
Still for that read-out and setting: with `C[C@@H]1CC[C@@]2(OC1)O[C@H]1C[C@H]3[C@@H]4CC[C@@H]5C[C@@H](O[C@@H]6O[C@@H](CO)[C@@H](O)[C@H](O)[C@@H]6O[C@@H]6O[C@H](C)[C@H](O)[C@@H](O)[C@@H]6O)CC[C@]5(C)[C@H]4CC[C@]3(C)[C@H]1[C@@H]2C` the figure was under 0.25 µg/mL.
Still for that read-out and setting: with `C[C@@H]1CC[C@@]2(OC1)O[C@H]1C[C@H]3[C@@H]4CC[C@@H]5C[C@@H](O[C@@H]6O[C@@H](CO)[C@H](O)[C@H](O)[C@@H]6O[C@@H]6O[C@@H](CO)[C@@H](O)[C@H](O)[C@@H]6O)CC[C@]5(C)[C@H]4CC[C@]3(C)[C@H]1[C@@H]2C` the figure was under 0.25 µg/mL.

Tested on in another data set: not listed separately
The data set can be described thus: Therapeutic index of compound was determined by the ratio of IC50 to that of EC50. It is filed as cell-based. As to conditions: human, H9 cells; read-out: TI.
Consider `C[C@@H]1C[C@H]2O[C@@]3(O[C@@H]2C(C)(C)O)[C@H](O)[C@@]2(C)[C@@H]4CC[C@H]5C(C)(C)[C@@H](O[C@@H]6OC[C@@H](O)[C@H](O)[C@H]6O)CC[C@@]56C[C@@]46CC[C@]2(C)[C@@H]13`, for which the selectivity ratio turned out to be 30.2.
As to `CC(=O)O[C@@H]1C[C@@]23C[C@@]24CC[C@H](OC2OCC(O)C(O)C2O)C(C)(C)[C@@H]4CC[C@H]3[C@]2(C)C[C@@H]3O[C@]4(C[C@@H](C)[C@@H]3[C@@]12C)OC[C@]1(C)O[C@H]41` (some centres undefined), the selectivity ratio stood at 30.2.
Same read-out and setting: with `CC(=O)OC1COC(O[C@H]2CC[C@]34C[C@]35CC[C@]3(C)[C@@H]([C@H](C)C[C@@H](OC(C)=O)[C@@H]6OC6(C)C)C(=O)[C@H](OC(C)=O)[C@@]3(C)[C@@H]5CC[C@H]4C2(C)C)C(OC(C)=O)C1OC(C)=O` (some centres undefined) the figure was 30.2; with `CC(=O)O[C@@H]1C[C@@]23C[C@@]24CC[C@H](OC2OCC(O)C(O)C2O)C(C)(C)[C@@H]4CC[C@H]3[C@]2(C)C[C@@H]3O[C@]4(C[C@@H](C)[C@@H]3[C@@]12C)O[C@H](O)[C@@]1(C)O[C@@H]41` (some centres undefined), 144.
Still for that read-out and setting: in the case of `C[C@H]1[C@H]2[C@H](C[C@@]3(C)C4=CC[C@H]5C(C)(C)[C@@H](OC6OCC(O)C(O)C6O)CC[C@@]56C[C@@]46CC[C@]23C)O[C@@]2(O)[C@@H]1OC(C)(C)[C@H]2O` (some centres undefined) it was 30.2; in that of `C[C@@H]1C[C@]2(C[C@@H](C)[C@H]3[C@@H](C[C@@]4(C)C5=C(CC[C@]34C)[C@@]3(C)CC[C@H](O[C@@H]4O[C@@H](O[C@@H]6OC[C@H](O)[C@H](O)[C@@H]6O[C@@H]6O[C@@H](CO)[C@@H](O)[C@H](O)[C@@H]6O[C@@H]6O[C@@H](C)[C@H](O)[C@H](O)[C@H]6O)[C@@H](O)[C@H](O)[C@@H]4O)[C@@](C)(CO)[C@@H]3CC5)O2)OC1=O`, 30.2.
Same read-out and setting: in the case of `C[C@H]1[C@H]2[C@H](C[C@@]3(C)[C@@H]4CC[C@H]5C(C)(C)[C@@H](OC6OCC(O)C(O)C6O)CC[C@@]56C[C@@]46CC[C@]23C)O[C@@]2(O)[C@@H]1OC(C)(C)[C@H]2O` (some centres undefined) it was 30.2.
